Source: US20100216791A1, “PYRIDINYLQUINAZOLINAMINE DERIVATIVES AND THEIR USE AS B-RAF INHIBITORS” (ASTRAZENECA, priority 2006, published 2010)
pIC50: −log10 of the molar value.

molecular target: Mutant B-Raf (V600E) enzyme (MT B-Raf) (Homo sapiens, UniProt P15056, V600E); test: biochemical; details: B-Raf Alpha screen comparable to the described assay; phosphorylation of biotinylated HIS-MEK-AVI; results may be an average of two or more results
Sequence (P15056 whole entry V600E): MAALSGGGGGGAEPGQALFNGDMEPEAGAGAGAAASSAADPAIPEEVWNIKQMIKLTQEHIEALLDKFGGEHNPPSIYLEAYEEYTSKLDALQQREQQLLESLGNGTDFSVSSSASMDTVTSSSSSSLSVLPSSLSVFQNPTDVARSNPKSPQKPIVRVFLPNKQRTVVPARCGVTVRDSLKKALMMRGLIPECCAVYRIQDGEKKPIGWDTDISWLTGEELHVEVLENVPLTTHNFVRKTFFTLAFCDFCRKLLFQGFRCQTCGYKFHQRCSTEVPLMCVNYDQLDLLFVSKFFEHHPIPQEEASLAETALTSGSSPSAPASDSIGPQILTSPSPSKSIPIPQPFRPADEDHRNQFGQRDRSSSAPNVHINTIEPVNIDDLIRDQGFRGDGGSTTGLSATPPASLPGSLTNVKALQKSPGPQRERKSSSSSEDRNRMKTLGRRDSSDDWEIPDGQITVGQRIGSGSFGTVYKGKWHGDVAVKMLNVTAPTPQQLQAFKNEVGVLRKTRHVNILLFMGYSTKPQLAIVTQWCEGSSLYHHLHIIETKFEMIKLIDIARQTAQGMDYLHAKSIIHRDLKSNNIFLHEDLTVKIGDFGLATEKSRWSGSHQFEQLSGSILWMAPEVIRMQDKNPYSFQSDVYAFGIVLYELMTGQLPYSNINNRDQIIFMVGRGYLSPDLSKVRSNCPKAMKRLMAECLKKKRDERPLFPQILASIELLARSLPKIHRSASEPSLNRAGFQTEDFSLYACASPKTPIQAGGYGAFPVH

pIC50	Compound
6.85	CC(C)NCCNC(=O)c1ccc(Nc2ncc3cc(-c4ccncc4)ccc3n2)cc1 [Example 28, N-[2-(Isopropylamino)ethyl]-4-[(6-pyridin-4-ylquinazolin-2-yl)amino]benzamide]
6.82	O=C(NCC1CCCN1)c1ccc(Nc2ncc3cc(-c4ccncc4)ccc3n2)cc1 (centres unmarked) [Example 60, 4-[(6-Pyridin-4-ylquinazolin-2-yl)amino]-N-pyrrolidin-2-ylmethylbenzamide]
6.70	O=C(NCCCN1CCCC1=O)c1ccc(Nc2ncc3cc(-c4ccncc4)ccc3n2)cc1 [Example 21, N-[3-(2-Oxopyrrolidin-1-yl)propyl]-4-[(6-pyridin-4-ylquinazolin-2-yl)amino]benzamide]
6.92	O=C(NCCOCCO)c1ccc(Nc2ncc3cc(-c4ccncc4)ccc3n2)cc1 [Example 8, N-[2-(2-Hydroxyethoxy)ethyl]-4-[(6-pyridin-4-ylquinazolin-2-yl)amino]benzamide]
7.10	CNC(=O)c1ccc(Nc2ncc3cc(-c4ccncc4)ccc3n2)cc1 [Example 17, N-Methyl-4-[(6-pyridin-4-ylquinazolin-2-yl)amino]benzamide]
7.68	CC(c1ccc(Nc2ncc3cc(-c4ccncc4)ccc3n2)cc1)N(C)C (single isomer, unassigned) [Example 140]
6.00	O=S(=O)(c1ccc(Nc2ncc3cc(-c4ccncc4)ccc3n2)cc1)C(F)F [Example 95, N-{4-[(Difluoromethyl)sulfonyl]phenyl}-6-pyridin-4-ylquinazolin-2-amine]
5.77	COc1cc(Nc2ncc3cc(-c4ccncc4)ccc3n2)cc(C(F)(F)F)c1 [Example 101, N-[3-Methoxy-5-(trifluoromethyl)phenyl]-6-pyridin-4-ylquinazolin-2-amine]
5.82	CC(C)Oc1cccc(Nc2ncc3cc(-c4ccncc4)ccc3n2)c1 [Example 86, N-(3-Isopropoxyphenyl)-6-pyridin-4-ylquinazolin-2-amine]
6.31	CC(C)(C)OC(=O)N1CCCC1CNC(=O)c1ccc(Nc2ncc3cc(-c4ccncc4)ccc3n2)cc1 (centres unmarked) [Example 19, tert-Butyl 2-[({4-[(6-pyridin-4-ylquinazolin-2-yl)amino]benzoyl}amino)methyl]pyrrolidine-1-carboxylate]
7.16	CNCCCNC(=O)c1ccc(Nc2ncc3cc(-c4ccncc4)ccc3n2)cc1 [Example 59, N-[3-(Methylamino)propyl]-4-[(6-pyridin-4-ylquinazolin-2-yl)amino]benzamide]
6.57	COCCNC(=O)c1ccc(Nc2ncc3cc(-c4ccncc4F)ccc3n2)cc1 [Example 48, 4-{[6-(3-Fluoropyridin-4-yl)quinazolin-2-yl]amino}-N-(2-methoxyethyl)benzamide]
6.80	CS(=O)(=O)c1cccc(Nc2ncc3cc(-c4ccncc4)ccc3n2)c1 [Example 104, N-[3-(Methylsulfonyl)phenyl]-6-pyridin-4-ylquinazolin-2-amine]
6.41	CC(C)(C)OC(=O)NCCNC(=O)c1ccc(Nc2ncc3cc(-c4ccncc4)ccc3n2)cc1 [Example 25, tert-Butyl [2-({4-[(6-pyridin-4-ylquinazolin-2-yl)amino]benzoyl}amino)ethyl]carbamate]
